Key:
miR-17 [1] = experiment: microRNA polysome shift assay (miPSA), kidney target engagement; format: in vivo, mouse; set-up: miPSA Score Wild Type Mice / miPSA Score PKD Mice / miPSA displacement score (mean): scale not given here; details: kidney, seven days
Protocol: (§1) In vivo potency was evaluated using the microRNA polysome shift assay (miPSA). This assay was used to determine the extent to which compounds directly engage the miR-17 target in the kidney in normal and PKD mice. The miPSA relies on the principle that active miRNAs bind to their mRNA targets in translationally active high molecular weight (HMW) polysomes, whereas the inhibited miRNAs reside in the low MW (LMW) polysomes. Treatment with anti-miR results in a shift of the microRNA from HMW polysomes to LMW polysomes. Thus, the miPSA provides a direct measurement of microRNA target engagement by a complementary anti-miR (Androsavich et al., Nucleic Acids Research, 2015, 44: e13).
(§2) The miPSA was used to assess the potency of each compound, measured by the displacement score, in wild type and JCK mice. Tissue accumulation of anti-miR-17 compound was measured by extraction of compound using liquid-liquid extraction (LLE) and/or solid-phase extraction (SPE), followed by analysis of the identity and concentration of compound using ion-pairing-reversed-phase high performance liquid chromatography coupled with time-of-flight mass spectrometry (IP—RP-HPLC-TOF).
(§3) Wild type mice were administered a single dose of 3 mg/kg for the miPSA analysis, and a single dose of 30 mg/kg for the tissue accumulation analysis. JCK mice were administered a single dose of 30 mg/kg for both the miPSA and tissue accumulation analyses. Kidney tissue was collected seven days following the administration of anti-miR-17 compound. […] A higher kidney-to-liver ratio is generally preferred for a disease where the primary site of action is the kidney.
as §1, with “The” for “In vivo potency was evaluated using the”, “(miPSA),” for “(miPSA). This assay”, “identify” for “determine the extent to which”, “compounds that” for “compounds”, “engage” for “engage the”, “miR-17” for “miR-17 target”
For this experiment, the PKD model selected was the JCK model, a mouse model of slowly progressing renal cystic disease associated with the same gene that causes human nephronophthisis type 9. Renal cysts in this mouse develop in multiple regions of the nephron.
C57BL6 mice were treated with a single, subcutaneous dose of 0.3, 3, and 30 mg/kg of RG4326 or tool anti-miR-17 (described in Example 1). JCK mice were treated with a single, subcutaneous dose of 3, 30, and 100 mg/kg of RG4326 or tool anti-miR-17. PBS treatment was used as an additional control. At seven days post-treatment, mice were sacrificed, and kidney tissue was isolated for the miPSA. […] The displacement scores following treatment with RG4326 were greater than the displacement scores following treatment with the tool anti-miR-17 compound. The data for wild-type mice and JCK mice are also shown in FIG. 3A and FIG. 3B, respectively.
Pharmacokinetic behavior was assessed by administering a single subcutaneous 30 mg/kg dose of RG4326 or tool anti-miR-17 compound to wild-type mice. At one hour, four hours, eight hours, one day, seven days, 14 days, 28 days and 56 days following the single injection, mice were sacrificed and the mean concentration of anti-miR compound in kidney and liver tissue was measured (ug/g) as described above. The area-under-curve (AUC) was calculated for kidney and liver tissue using the formula ug*h/g, where ug is the amount of oligonucleotide in the tissue, h is the timepoint of tissue collection in hours, and g is the weight of the tissue. The ratio of kidney AUC to liver AUC was determined. Kidney tissue was also processed to the miPSA, to determine target engagement for each compound in this study. […]

miR-17 [2] = experiment: miR-17 luciferase reporter assay in HeLa cells; format: cell-based; details: mean
Protocol: In vitro potency was evaluated using a luciferase reporter assay. A luciferase reporter plasmid for miR-17, with […] in the 3′-UTR of the luciferase gene. Compounds of longer lengths were selected if their maximum inhibition was greater than that of the tool anti-miR-17 compound. As shorter compounds, such as 9-mers, are typically not maximally active in the same assay conditions used for longer compounds, shorter compounds were selected based on maximum inhibition relative to appropriate control compounds. In this way, compounds that are diverse in both length and chemical composition were included in further testing.
One assay employed was the luciferase assay. […] Accordingly, the luciferase assay transfection conditions were optimized for short anti-miR-17 compounds, so that the inhibitory activity of the compounds could be measured.
The luciferase reporter plasmid for miR-17 contained a fully complementary miR-17 binding site in the 3′-UTR of the luciferase gene. HeLa cells were transfected with the microRNA mimic and its cognate luciferase reporter, followed by transfection with anti-miR-17 at doses of […], 3, 10, 30, 100, and 300 nM. At the end of the 24-hour transfection period, luciferase activity was measured. As shown in Table 2-1, RG4047, while not as potent as RG4326, inhibited miR-17 activity in a dose dependent manner. SD indicates standard deviation.
Additional in vitro assays were conducted to further explore the potency of RG4326. A luciferase reporter assay was used to test the ability of RG4326 to inhibit the miR-17 family members miR-17, miR-20a, miR-93, and miR-106b. A luciferase reporter plasmid for each of miR-20a, miR-93, and miR-106b was constructed, with a fully complementary microRNA binding site in the 3′-UTR of the luciferase gene. HeLa cells were transfected with the microRNA mimic and its cognate luciferase reporter, followed by transfection with anti-miR-17 at a dose of 100 nm. […] As RG4326 is 100% complementary to the other miR-17 family members not tested, miR-20b and […], it is expected to inhibit these microRNAs as well.

[3] = Safety evaluation of RG4047 (pro-inflammatory signal in kidney and liver)
Protocol: In in vitro assays, the potential for toxicity was assessed using a biochemical fluorescent binding assay (FBA) and a liver or kidney slice assay. The FBA is performed by incubating a fluorescent dye with each compound, and immediately measuring fluorescence. Highly fluorescent compounds have the potential to produce toxicity in vivo. The liver or kidney slice assay is performed by incubating a slice of tissue from a core liver sample isolated from rat. Following a 24-hour incubation, RNA is extracted from the tissue slice, and the expression levels of 18 pro-inflammatory genes are measured. An induction in pro-inflammatory gene expression indicates a potential for pro-inflammatory effects in vivo.
Additional in vivo toxicology assessments were performed by administering to normal mice (Sv129 mice) a single subcutaneous injection of 300 mg/kg of anti-miR-17 compound. After four days, mice were sacrificed, blood was collected for serum chemistry analysis, liver and spleen were weighed, and RNA was isolated from kidney and liver tissues. The expression level of a pro-inflammatory gene, interferon-induced protein with tetratricopeptide repeats (IFIT), was measured.
RG4047 was evaluated for potency in vivo, safety, and distribution to kidney and liver.

[4] = Tissue accumulation in kidney and liver (kidney-to-liver ratio); format: in vivo, mouse; details: single dose 30 mg/kg, seven days
Protocol: Pharmacokinetic properties and tissue distribution of select compounds were assessed in wild type C57BL6 mice and JCK mice (an experimental model of PKD). Compound was administered to wild type mouse at a dose of 0.3, 3, or 30 mg/kg, or to JCK mice at a dose of 3, 30, or 100 mg/kg. After seven days, mice were sacrificed. Kidney and liver tissues were collected. Concentration of anti-miR-17 compound was measured in liver and kidney. Compounds that accumulate to a greater level in kidney, relative to liver (i.e., have a higher kidney-to-liver ratio) were preferred.
as §2, §3

ASGSCSASCSUSUSUSGS [RG4047]
miPSA Score PKD Mice (miR-17 [1]; JCK mice, single dose 30 mg/kg): 1.80
miPSA Score Wild Type Mice (miR-17 [1]; wild type mice, single dose 3 mg/kg): 1.76
Luciferase Fold Derepression (miR-17 [2]; 0.001 nM anti-miR-17, 24-hour transfection): 1
Luciferase Fold Derepression (miR-17 [2]; 3 nM anti-miR-17, 24-hour transfection): 1.6
Luciferase Fold Derepression (miR-17 [2]; 10 nM anti-miR-17, 24-hour transfection): 2.2
Luciferase Fold Derepression (miR-17 [2]; 30 nM anti-miR-17, 24-hour transfection): 3.5
Luciferase Fold Derepression (miR-17 [2]; 100 nM anti-miR-17, 24-hour transfection): 8.2
Luciferase Fold Derepression (miR-17 [2]; 300 nM anti-miR-17, 24-hour transfection): 7.5
pro-inflammatory signal (in words) [3]: slight pro-inflammatory signal in both kidney and liver
Kidney-to-Liver Ratio PKD Mice ([4]; JCK mice): 2.1
Kidney-to-Liver Ratio Wild Type Mice ([4]; wild type mice): 4.4

Source: patent US20250333745A1, “METHODS AND COMPOSITIONS FOR TREATMENT OF POLYCYSTIC KIDNEY DISEASE” (Regulus Therapeutics Inc., priority 2016, published 2025)
